From ChEMBL document CHEMBL4304783, “Discovery of a Novel Selective Dual Peroxisome Proliferator-Activated Receptor α/δ Agonist for the Treatment of Primary Biliary Cirrhosis” (ACS Med Chem Lett, 2019)
Activity calls are given as the source filed them. The calls are words filed in the database; no cut-off is given here.

Assays:
[1] = AUC (0 to last) in Sprague-Dawley rat at 1 mg/kg, iv measured upto 24 hrs by LC-MS/MS analysis; format: ADME, organism-based; set-up: dose 1 mg/kg, route intravenous, time 0 - last; conditions: in vivo
[2] = target: T1, Peroxisome proliferator-activated receptor alpha (Homo sapiens, UniProt Q07869); test: Agonist activity at PPARalpha (unknown origin) incubated for 3 to 16 hrs by pathhunter nuclear hormone receptor assay
T1 sequence (Q07869 whole entry): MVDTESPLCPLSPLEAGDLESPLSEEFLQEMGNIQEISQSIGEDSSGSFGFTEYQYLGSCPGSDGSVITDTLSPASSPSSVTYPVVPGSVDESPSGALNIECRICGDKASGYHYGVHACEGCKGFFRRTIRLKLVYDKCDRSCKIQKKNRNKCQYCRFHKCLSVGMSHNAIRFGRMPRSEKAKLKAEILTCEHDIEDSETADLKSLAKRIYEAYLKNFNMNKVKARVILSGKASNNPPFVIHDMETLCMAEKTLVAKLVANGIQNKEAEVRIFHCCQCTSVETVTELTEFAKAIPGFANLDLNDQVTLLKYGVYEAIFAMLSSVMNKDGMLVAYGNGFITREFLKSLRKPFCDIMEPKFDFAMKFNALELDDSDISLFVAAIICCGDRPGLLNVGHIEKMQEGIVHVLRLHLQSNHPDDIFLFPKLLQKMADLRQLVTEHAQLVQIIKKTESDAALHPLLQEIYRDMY

[3] = Apparent permeability across apical to basolateral side in human Caco2 cells at 2 uM incubated for 120 mins by LC-MS/MS analysis; format: ADME, cell-based; conditions: Caco-2
Cytochrome P450 1A2 = target: T2, Cytochrome P450 1A2 (Homo sapiens, UniProt P05177); test: Inhibition of CYP1A2 in human liver microsomes using phenacetin as substrate incubated for 10 mins followed by substrate addition further incubated for 10 mins by LC-MS/MS analysis; format: ADME
T2 sequence (P05177 whole entry): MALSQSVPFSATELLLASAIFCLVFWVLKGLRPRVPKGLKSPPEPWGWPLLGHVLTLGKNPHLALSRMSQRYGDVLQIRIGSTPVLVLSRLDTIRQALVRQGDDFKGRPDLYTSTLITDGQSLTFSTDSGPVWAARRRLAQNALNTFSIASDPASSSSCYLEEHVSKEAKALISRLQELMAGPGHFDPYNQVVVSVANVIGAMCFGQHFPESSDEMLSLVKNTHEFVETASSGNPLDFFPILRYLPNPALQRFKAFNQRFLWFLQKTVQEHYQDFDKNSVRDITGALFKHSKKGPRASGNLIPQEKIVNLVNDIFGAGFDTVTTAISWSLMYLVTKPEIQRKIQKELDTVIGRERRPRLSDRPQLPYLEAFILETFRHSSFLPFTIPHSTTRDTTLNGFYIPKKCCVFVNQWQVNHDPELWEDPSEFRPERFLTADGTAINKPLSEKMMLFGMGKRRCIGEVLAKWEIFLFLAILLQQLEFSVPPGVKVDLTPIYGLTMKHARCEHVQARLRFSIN

[4] = AUC (0 to last) in Sprague-Dawley rat at 10 mg/kg, po measured upto 24 hrs by LC-MS/MS analysis; format: ADME, organism-based; set-up: dose 10 mg/kg, route oral, time 0 - last; conditions: in vivo
Cytochrome P450 2C9 = Cytochrome P450 2C9 (Homo sapiens, UniProt P11712); test: Inhibition of CYP2C9 in human liver microsomes using diclofenac as substrate incubated for 10 mins followed by substrate addition further incubated for 10 mins by LC-MS/MS analysis; format: ADME
Cytochrome P450 2C9, sequence (P11712 whole entry): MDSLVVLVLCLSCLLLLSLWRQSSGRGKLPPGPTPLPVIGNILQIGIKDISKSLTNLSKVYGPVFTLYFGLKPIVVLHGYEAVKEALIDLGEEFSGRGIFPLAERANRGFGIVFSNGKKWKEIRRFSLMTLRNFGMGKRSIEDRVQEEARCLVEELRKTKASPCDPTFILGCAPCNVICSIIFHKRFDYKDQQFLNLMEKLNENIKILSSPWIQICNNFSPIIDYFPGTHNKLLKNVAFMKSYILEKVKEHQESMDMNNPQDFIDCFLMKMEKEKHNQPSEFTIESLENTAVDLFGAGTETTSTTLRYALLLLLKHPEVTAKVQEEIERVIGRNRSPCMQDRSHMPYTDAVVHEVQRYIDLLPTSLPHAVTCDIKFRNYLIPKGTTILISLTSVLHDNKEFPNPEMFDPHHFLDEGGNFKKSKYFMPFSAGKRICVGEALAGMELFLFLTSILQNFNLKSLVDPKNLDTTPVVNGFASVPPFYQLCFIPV

[5] = Clearance in C57BL/6J mouse at 1 mg/kg, iv measured upto 24 hrs by LC-MS/MS analysis; format: ADME, organism-based; conditions: in vivo
[6] = Tmax in Sprague-Dawley rat at 10 mg/kg, po measured upto 24 hrs by LC-MS/MS analysis; format: ADME, organism-based; conditions: in vivo
Rattus norvegicus [7] = test: Hepatoprotective activity in Sprague-Dawley rat assessed as reduction in ANIT-stimulated total bilirubin level at 3 mg/kg, ig administered for 8 days by biochemical analysis; format: functional, organism-based
Cytochrome P450 2D6 = Cytochrome P450 2D6 (Homo sapiens, UniProt P10635); test: Inhibition of CYP2D6 in human liver microsomes using dextromethorphan as substrate incubated for 10 mins followed by substrate addition further incubated for 10 mins by LC-MS/MS analysis; format: ADME
Cytochrome P450 2D6, sequence (P10635 whole entry): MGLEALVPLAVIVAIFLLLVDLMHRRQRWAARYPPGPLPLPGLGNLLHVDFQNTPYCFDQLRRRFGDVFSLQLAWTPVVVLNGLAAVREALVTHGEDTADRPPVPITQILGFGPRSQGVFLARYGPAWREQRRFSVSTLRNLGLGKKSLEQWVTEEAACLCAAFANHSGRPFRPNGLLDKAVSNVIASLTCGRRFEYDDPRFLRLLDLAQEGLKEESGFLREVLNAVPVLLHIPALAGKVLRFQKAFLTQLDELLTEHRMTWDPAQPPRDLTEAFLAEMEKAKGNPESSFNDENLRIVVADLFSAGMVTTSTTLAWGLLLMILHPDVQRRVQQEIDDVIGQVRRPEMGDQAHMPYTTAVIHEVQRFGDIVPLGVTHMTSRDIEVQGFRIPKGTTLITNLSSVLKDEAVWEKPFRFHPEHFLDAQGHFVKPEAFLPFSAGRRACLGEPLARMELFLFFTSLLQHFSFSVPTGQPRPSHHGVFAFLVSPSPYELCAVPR

[8] = target: T3, Peroxisome proliferator-activated receptor gamma (Homo sapiens, UniProt P37231); test: Agonist activity at PPARgamma (unknown origin) incubated for 3 to 16 hrs by pathhunter nuclear hormone receptor assay
T3 sequence (P37231 whole entry): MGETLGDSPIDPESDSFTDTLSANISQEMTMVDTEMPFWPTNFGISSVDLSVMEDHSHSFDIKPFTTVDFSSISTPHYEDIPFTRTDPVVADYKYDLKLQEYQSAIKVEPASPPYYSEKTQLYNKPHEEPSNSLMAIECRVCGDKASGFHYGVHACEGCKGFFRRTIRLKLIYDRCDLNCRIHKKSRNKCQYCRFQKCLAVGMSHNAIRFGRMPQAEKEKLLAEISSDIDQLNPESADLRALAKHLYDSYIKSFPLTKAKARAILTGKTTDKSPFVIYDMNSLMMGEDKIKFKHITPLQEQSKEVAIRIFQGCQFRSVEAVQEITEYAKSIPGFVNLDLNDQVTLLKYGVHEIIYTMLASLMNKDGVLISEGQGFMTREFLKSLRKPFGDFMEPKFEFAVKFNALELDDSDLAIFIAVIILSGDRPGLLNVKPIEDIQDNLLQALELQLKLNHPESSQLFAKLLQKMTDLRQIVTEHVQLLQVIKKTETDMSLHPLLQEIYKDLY

Rattus norvegicus [9] = test: Hepatoprotective activity in Sprague-Dawley rat assessed as reduction in ANIT-stimulated inflammatory score at 3 mg/kg, ig administered for 8 days by hematoxylin and eosin staining based mopho-metric analysis relative to control; format: functional; set-up: scale not given: the % may be the effect or the level left
[10] = Half life in C57BL/6J mouse at 1 mg/kg, iv measured upto 24 hrs by LC-MS/MS analysis; format: ADME, organism-based; conditions: in vivo
[11] = Protein binding in human plasma at 2 uM incubated for 4 hrs by LC-MS/MS analysis; format: ADME, cell-free
[12] = Half life in Sprague-Dawley rat at 1 mg/kg, iv measured upto 24 hrs by LC-MS/MS analysis; format: ADME, organism-based; conditions: in vivo
[13] = Clearance in Sprague-Dawley rat at 1 mg/kg, iv measured upto 24 hrs by LC-MS/MS analysis; format: ADME, organism-based; conditions: in vivo
[14] = Oral bioavailability in C57BL/6J mouse at 10 mg/kg upto 24 hrs by LC-MS/MS analysis; conditions: in vivo
[15] = Efflux ratio of apparent permeability across basolateral to apical over apical to basolateral side in human Caco2 cells at 2 uM incubated for 120 mins by LC-MS/MS analysis; format: ADME, cell-based; conditions: Caco-2
Rattus norvegicus [16] = test: Hepatoprotective activity in Sprague-Dawley rat assessed as reduction in ANIT-stimulated fibrosis area at 3 mg/kg, ig administered for 8 days by hematoxylin and eosin staining based mopho-metric analysis relative to control; format: functional; set-up: scale not given: the % may be the effect or the level left
[17] = Volume of distribution at steady state in C57BL/6J mouse at 1 mg/kg, iv measured upto 24 hrs by LC-MS/MS analysis; format: ADME, organism-based; conditions: in vivo, read-out: Vdss
[18] = AUC (0 to last) in C57BL/6J mouse at 1 mg/kg, iv measured upto 24 hrs by LC-MS/MS analysis; format: ADME, organism-based; set-up: dose 1 mg/kg, time 0 - last, route intravenous; conditions: in vivo

Cc1cc(Cc2cc(-c3ccc(Br)cc3)on2)cc(C)c1OC(C)(C)C(=O)O
AUC(0-t) at 24 h [1]: 105 µM·h
EC50 [2]: 0.008 µM
Papp A→B at 2 h, 2 µM [3]: 0.5 ×10⁻⁶ cm/s
IC50 (Cytochrome P450 1A2): 10 µM
AUC(0-t) at 24 h [4]: 561 µM·h
IC50 (Cytochrome P450 2C9): 20 µM
clearance [5]: 3.53 mL/min/kg
Tmax [6]: 1.33 h
Activity (Rattus norvegicus [7]): Active
IC50 (Cytochrome P450 2D6): > 50 µM
EC50 [8]: 2.94 µM
Activity (Rattus norvegicus [9]): 30%
half-life [10]: 3.6 h
fraction unbound at 4 h, 2 µM [11]: < 0.001
half-life [12]: 6 h
clearance [13]: 0.35 mL/min/kg
bioavailability [14]: 59.8%
efflux ratio at 2 h, 2 µM [15]: 0.4
Activity (Rattus norvegicus [16]): 28%
Vd [17]: 0.53 L/kg
AUC(0-t) at 24 h [18]: 10.6 µM·h
